Blank lines part the entries; values can stand above or below the compound they belong to. Ends that are not written are not given here.
Assays:
[1] = in vivo; cited from earlier work
^32 P-inhibitor 1 = assay: Calcineurin phosphatase assay of reconstituted CaN holo-enzyme; type: biochemical; settings: in association with CaN B, ten minute incubation at room temperature, 33 nM complex
Method: The activity of CaN is measured by the Ca^2+ --and calmodulin-dependentrelease of ^32 Pi from ^32 P-inhibitor 1, using the method of Nairn, et al. [Neuroprotocols 6:108-111 (1995)]. Identified chemicals are pre-incubated with 4 or 30 nM CaN before initiation of the reaction with ^32 P-inhibitor 1 (Chemicon). Inhibitor 1 (50 μg) was phosphorylated using the catalytic subunit of PKA and purified according to the procedure described in Nairn, et al., [supra]. Phosphatase activity in the absence of chemicals is defined as 100%.
In order to determine if the mutated CaN A protein retained phosphatase activity, a CaN holo-enzyme was reconstituted. One micromole of purified wild type or mutant CaN A was incubated with equal molar amount of purified CaN B (Chemicon), and calmodulin (Sigma) in 50 mM Hepes, pH 7.5, 1 mM MnCl2, 0.5 mM EDTA, 1 mM DDT, and 2 mg/ml BSA, for 24 hours at 4° C., after which 33 nM of the reconstituted complex was used in a calcineurin phosphatase assay using ^32 P-inhibitor 1 as substrate as described in Example 14.

protein phosphatases 1 = assay: Protein phosphatase 1 activity; type: biochemical; settings: peptide concentrations as high as 0.4 mM
CaN420 = molecular target: T1, CaN420 (Rattus norvegicus, UniProt P63329); assay: CaN420 phosphatase activity toward 32P RII peptide substrate; type: biochemical; settings: calmodulin omitted
T1 construct: a truncated, Ca^2+ /calmodulin independent constitutively active form of CaN; made in house; host or cells: Sf9 cells (baculovirus)
Method: (§1) To determine whether AKAP 79 peptide binding inhibits CaN activity, CaN phosphatase activity was assayed in the presence of recombinant AKAP 79. Briefly, recombinant AKAP 79 was expressed in E. coli as described in Carr et al., J. Biol. Chem., 267:16816-16823 (1992), incorporated herein by reference. CaN and the constitutively active truncation mutant CaN420 (a truncated, Ca^2+ /calmodulin independent constitutively active form of CaN (Perrino et al., J. Biol. Chem., in press)) were expressed in Sf9 cells and purified on calmodulin-Sepharose as described in Perrino et al., J. Biol Chem., 267:15965-15969 (1992), incorporated herein by reference. Phosphatase activity toward ^32 P RII peptide substrate was measured as described in Perrino et al., supra. CaN (30 nM), calmodulin (100 nM) and ^32 P RII peptide (22 μM) were incubated with AKAP 79 protein and AKAP 79 peptide (SEQ ID NO:1-amino acids 81-102) over the range of concentrations indicated in FIG. 1B. Calmodulin was omitted from CaN420 assays. ^32 P released from the substrate was measured in triplicate samples in three separate experiments by scintillation counting. The inhibition constant (Ki) of recombinant AKAP 79 for CaN was determined by linear regression analysis of data. Ki values for AKAP 79 peptide were estimated by determining the IC50 using a fixed substrate concentration at Km (42 μM).

CaN = molecular target: T2, CaN (Rattus norvegicus, UniProt P63329); assay: CaN phosphatase activity toward 32P RII peptide substrate; type: biochemical
T2 construct: made in house; host or cells: Sf9 cells (baculovirus)
Method: as §1

protein phosphatases 2A = assay: Protein phosphatase 2A activity; type: biochemical; settings: peptide concentrations as high as 0.4 mM
[2] = following liver transplantation; cited from earlier work

Compound: N=C(N)NCCCCCCC(=O)NC(O)C(=O)NCCCCNCCCN (centres unmarked) [15-Deoxyspergualin]
effective in refractory kidney rejection [1]: 70-90%

dephosphorylation of substrate (^32 P-inhibitor 1): 33%
Compound: biotinylated CaN A: endogenously biotinylated rat brain calcineurin A, wild type

effect on activity of protein phosphatase 1 (protein phosphatases 1): did not significantly affect
inhibition of CaN420 phosphatase activity (CaN420): inhibited
inhibition of full-length CaN phosphatase activity (CaN; Ca2+/calmodulin dependent CaN 30 nM, 32P RII peptide substrate): inhibited
effect on activity of protein phosphatase 2A (protein phosphatases 2A): did not significantly affect
Compound: RRKRSQSSKEEKP [AKAP 79 peptide]

effect on the potency of inhibition of CaN by AKAP 79 (CaN; FK506 2 μM): did not affect
Compound: C=CC[C@@H]1/C=C(\C)C[C@H](C)C[C@H](OC)[C@H]2O[C@@](O)(C(=O)C(=O)N3CCCC[C@H]3C(=O)O[C@H](/C(C)=C/[C@@H]3CC[C@@H](O)[C@H](OC)C3)[C@H](C)[C@@H](O)CC1=O)[C@H](C)C[C@@H]2OC [FK506, reference compound]
patients with moderate to severe neurotoxicity [2]: 10-20%
